What all share (assay type): in vivo
The test system of test [1] is Viola tricolor. Put plainly: Post-emergence herbicidal action, VIOTR. The following applies: 80 g/ha, Table D. The procedure, abridged: (§1)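 Post-emergence spray; one-leaf stage (2–3 wk after sowing), sandy loam, greenhouse. WP/EC in water, 600 to […], +0.2% wetting agent. Visual % damage vs untreated at ~3 wk; 100% = plants dead.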
Test [2] concerns Stellaria media. Put plainly: Post-emergence herbicidal action, STEME. The settings on record: 80 g/ha, Table D. The procedure, abridged: as §1
The subject of test [3] is Setaria viridis. Put plainly: Post-emergence herbicidal action, SETVI. The following applies: 80 g/ha, Table C. As to the method:
(§2) Seeds of monocotyledonous and dicotyledonous weed and crop plants are laid out in sandy loam soil in wood-fiber pots, covered with soil and cultivated in a greenhouse under good growth conditions. 2 to 3 weeks after sowing, the test plants are treated at the one-leaf stage. The compounds of the invention, formulated in the form of wettable powders (WP) or as emulsion concentrates (EC), are then sprayed onto the green parts of the plants in the form of an aqueous suspension or emulsion at a water application rate equating to […], with addition of 0.2% wetting agent. After the test plants have been left to stand in the greenhouse under optimal growth conditions for about 3 weeks, the action of the preparations is assessed visually in comparison to untreated controls (herbicidal action in percent (%): 100% activity=the plants have died, 0% activity=like control plants). […] At the same time, inventive compounds leave Gramineae crops such as barley, wheat, rye, millet/sorghum, corn or rice virtually undamaged when applied post-emergence, even at high active compound dosages. In addition, some substances are also harmless to dicotyledonous crops such as soya, cotton, oilseed rape, sugar beet or potatoes. Some of the compounds according to the invention have high selectivity and are therefore suitable for controlling unwanted vegetation in agricultural crops by the post-emergence method. The data of Tables C and D below illustrate, in an exemplary manner, the […] herbicidal action of the compounds according to the invention, the herbicidal activity being stated in percent.
(§3) For comparison, the herbicidal activity of numerous compounds according to the invention was tested with the structurally closest compounds known from the documents WO 2011/035874, WO 2012/028579 and WO 2012/126932, by the pre- and post-emergence method.

A further test concerns Matricaria inodora. As to the kind of experiment: Pre-emergence herbicidal action, MATIN. The settings on record: dosage 320 g/ha, scored visually after 3 weeks vs untreated controls. The procedure, abridged:
(§4)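 Weed seeds were laid out in sandy loam and covered with soil, then the soil surface was treated with an aqueous suspension or emulsion of the formulated compound containing 0.2% wetting agent. Pots stayed in the greenhouse for 3 weeks before damage was rated visually against untreated plants.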

Test [4] has as its system Viola tricolor. Put plainly: Pre-emergence herbicidal action, VIOTR. The following applies: dosage 320 g/ha, scored visually after 3 weeks vs untreated controls. The procedure, abridged:
as §4

For test [5], the system named is Avena fatua. As to the kind of experiment: Post-emergence herbicidal action, AVEFA. The following applies: 80 g/ha, Table C. As to the method: as §2, §3
Test [6] deals with Alopecurus myosuroides. As to the kind of experiment: Post-emergence herbicidal action, ALOMY. The following applies: 80 g/ha, Table C. As for the experimental part:
as §2, §3

The subject of test [7] is Amaranthus retroflexus. As to the kind of experiment: Post-emergence herbicidal action, AMARE. The settings on record: 80 g/ha, Table D. The gist of the method: as §1
Test [8] has as its system Setaria viridis. As to the kind of experiment: Pre-emergence herbicidal action, SETVI. The following applies: dosage 320 g/ha, scored visually after 3 weeks vs untreated controls. The gist of the method:
as §4

The subject of test [9] is Alopecurus myosuroides. As to the kind of experiment: Pre-emergence herbicidal action, ALOMY. The following applies: dosage 320 g/ha, scored visually after 3 weeks vs untreated controls.
Source text: (§5) 1. Pre-Emergence Herbicidal Action Against Harmful Plants Seeds of monocotyledonous and dicotyledonous weed plants and crop plants are laid out in sandy loam soil in wood-fiber pots and covered with soil. The compounds of the invention, formulated in the form of wettable powders (WP) or as emulsion concentrates (EC), are then applied to the surface of the covering soil in the form of an aqueous suspension or emulsion at a water application rate equating to […], with addition of 0.2% wetting agent. After the treatment, the pots are placed in a greenhouse and kept under good growth conditions for the trial plants. The damage to the test plants is scored visually after a test period of 3 weeks by comparison with untreated controls (herbicidal activity in percent (%): 100% activity=the plants have died, 0% activity=like control plants).
as §3

Test [10] concerns Amaranthus retroflexus. As to the kind of experiment: Pre-emergence herbicidal action, AMARE. The following applies: dosage 320 g/ha, scored visually after 3 weeks vs untreated controls. The gist of the method:
as §4

Test [11] relates to Stellaria media. Put plainly: Pre-emergence herbicidal action, STEME. The following applies: dosage 320 g/ha, scored visually after 3 weeks vs untreated controls. The gist of the method:
as §4

For a further test, the system named is ECHCG. Put plainly: Post-emergence herbicidal action, ECHCG. The settings on record: 80 g/ha, Table C. As to the method:
as §2

The subject of test [12] is Abutilon theophrasti. As to the kind of experiment: Pre-emergence herbicidal action, ABUTH. The settings on record: dosage 320 g/ha, scored visually after 3 weeks vs untreated controls. The procedure, abridged:
as §4

In test [13] the test system is Avena fatua. As to the kind of experiment: Pre-emergence herbicidal action, AVEFA. The settings on record: dosage 320 g/ha, scored visually after 3 weeks vs untreated controls.
Source text: as §5, §3

The next test concerns Cyperus serotinus. Put plainly: Pre-emergence herbicidal action, CYPES. The settings on record: dosage 320 g/ha, scored visually after 3 weeks vs untreated controls. The gist of the method:
as §4

Test [14] concerns Abutilon theophrasti. As to the kind of experiment: Post-emergence herbicidal action, ABUTH. The following applies: 80 g/ha, Table D. The gist of the method: as §1
The subject of a further test is Pharbitis purpureum. As to the kind of experiment: Post-emergence herbicidal action, PHBPU. The settings on record: 80 g/ha, Table D. The procedure, abridged:
as §1

Consider `CCSc1c(C(F)F)ccc(C(=O)Nc2nnc(C)o2)c1C` [Example 7-4], for which the “herbicidal activity VIOTR” value with Viola tricolor [1] and in the test on Viola tricolor [4] was 100% in each case. Moreover, the “Herbicidal activity STEME” value with Stellaria media [2] and with Stellaria media [11] was 90% throughout. Further, the “herbicidal activity SETVI” value in the test on Setaria viridis [3] and in the test with Setaria viridis [8] was 100% in each case. For the same molecule, the “herbicidal activity MATIN” value with Matricaria inodora is 80%. In addition, the “herbicidal activity AVEFA” value in the test on Avena fatua [5] is 90%. In addition, the “herbicidal activity ALOMY” value in the test on Alopecurus myosuroides [6] and with Alopecurus myosuroides [9] was 90% throughout. The “herbicidal activity AMARE” value with Amaranthus retroflexus [7] and in the test on Amaranthus retroflexus [10] was 100% each time. For the same molecule, in the test with ECHCG, the “Herbicidal activity ECHCG” value is reported as 100%. The “herbicidal activity ABUTH” value in the test on Abutilon theophrasti [12] is on record as 100%.
For `CCSc1c(C(F)F)ccc(C(=O)Nc2nnc(C)o2)c1Cl` [Example 7-50], the entries for the “herbicidal activity AVEFA” value with Avena fatua [13] and with Avena fatua [5] were 100% and 90%, respectively. Besides, the “herbicidal activity CYPES” value with Cyperus serotinus worked out at 90%. In addition, the “herbicidal activity VIOTR” value with Viola tricolor [1] and in the test with Viola tricolor [4] was 100% in each case. Besides, the “Herbicidal activity STEME” value worked out at 90% in the test on Stellaria media [2] and 100% in the test with Stellaria media [11]. In addition, the “herbicidal activity ABUTH” value in the test on Abutilon theophrasti [14] and in the test with Abutilon theophrasti [12] was 100% throughout. In addition, the “herbicidal activity SETVI” value in the test on Setaria viridis [3] and in the test with Setaria viridis [8] was 100% throughout. The “herbicidal activity MATIN” value with Matricaria inodora was determined as 90%. Also, the “herbicidal activity ALOMY” value with Alopecurus myosuroides [6] was 90%; in the test with Alopecurus myosuroides [9] it was 100%. Further, the “herbicidal activity AMARE” value in the test on Amaranthus retroflexus [7] and with Amaranthus retroflexus [10] was 90% in each case. Also, the “Herbicidal activity ECHCG” value in the test on ECHCG is on record as 100%.
For the molecule `CCSc1c(C(F)F)ccc(C(=O)Nc2nnnn2C)c1CC` [Example 1-16], the “herbicidal activity AVEFA” value is reported as 100% in the test on Avena fatua [13] and 90% in the test with Avena fatua [5]. Further, the “herbicidal activity CYPES” value in the test on Cyperus serotinus worked out at 100%. Further, the “herbicidal activity VIOTR” value in the test with Viola tricolor [1] and in the test with Viola tricolor [4] was 100% in each case. Further, the “Herbicidal activity STEME” value in the test with Stellaria media [2] and in the test on Stellaria media [11] was 100% in each case. The “herbicidal activity ABUTH” value with Abutilon theophrasti [14] and in the test with Abutilon theophrasti [12] was 100% in each case. Also, the results for the “herbicidal activity SETVI” value with Setaria viridis [3] and in the test with Setaria viridis [8] were 90% and 100%, respectively. In the test on Matricaria inodora, the “herbicidal activity MATIN” value was determined as 100%. The “herbicidal activity ALOMY” value in the test with Alopecurus myosuroides [6] was 90%; with Alopecurus myosuroides [9], 100%. Moreover, the “herbicidal activity AMARE” value in the test with Amaranthus retroflexus [7] and with Amaranthus retroflexus [10] was 100% in each case. Also, the “Herbicidal activity ECHCG” value in the test on ECHCG was 90%.
With `CCCn1nnnc1NC(=O)c1ccc(C(F)F)c([S+](C)[O-])c1C` (centres unmarked) [Example 3-2], the “Herbicidal activity PHBPU” value in the test on Pharbitis purpureum turned out to be 90%. Moreover, the “herbicidal activity AVEFA” value in the test with Avena fatua [13] and in the test with Avena fatua [5] was 90% in each case. In the test on Cyperus serotinus, the “herbicidal activity CYPES” value is on record as 80%. Further, the “herbicidal activity VIOTR” value with Viola tricolor [1] and in the test on Viola tricolor [4] was 100% in each case. Besides, the “Herbicidal activity STEME” value in the test on Stellaria media [2] was found to be 100%; in the test with Stellaria media [11], 90%. Also, the entries for the “herbicidal activity ABUTH” value with Abutilon theophrasti [14] and in the test on Abutilon theophrasti [12] were 80% and 100%, respectively. Further, the “herbicidal activity SETVI” value with Setaria viridis [3] and with Setaria viridis [8] was 100% in each case. Moreover, the “herbicidal activity MATIN” value in the test with Matricaria inodora is 100%. The “herbicidal activity ALOMY” value with Alopecurus myosuroides [6] and in the test with Alopecurus myosuroides [9] was 90% each time. In addition, the “herbicidal activity AMARE” value in the test on Amaranthus retroflexus [10] is recorded as 100%. Moreover, in the test on ECHCG, the “Herbicidal activity ECHCG” value came out at 90%.

The record behind these values is patent US20230183193A1, “4-DIFLUOROMETHYL BENZOYL AMIDES WITH HERBICIDAL ACTION” (BAYER CROPSCIENCE AKTIENGESELLSCHAFT, priority 2017, published 2023).
